Values belong to the molecule of their own block, whether it stands above or below them.
How the values were obtained:
Format in all cases: in vivo
[1] = system: Triticum aestivum (TRZAS); test: F. Post-emergence effect on useful plants, TRZAS; conditions: useful plant, application rate 80 g/ha
Experimental: (§1) Seeds of monocotyledonous and dicotyledonous weeds and crop plants were placed in sandy loam in plastic or organic planting pots, covered with soil and cultivated in a greenhouse under controlled growth conditions. 2 to 3 weeks after sowing, the test plants were treated at the one-leaf stage. The compounds of the invention, formulated in the form of wettable powders (WP) or as emulsion concentrates (EC), were then sprayed onto the green parts of the plants as aqueous suspension or emulsion with addition of 0.5% additive at a water application rate of 600 l/ha (converted). After the test plants had been kept in the greenhouse under optimum growth conditions for about 3 weeks, the activity of the preparations was rated visually in comparison to untreated controls.
(§2) For example, • 100% efficacy=plants have died, • 0% action=like untreated control plants.
(§3) Tables F1a to F4 below show the effects of selected compounds of the general formula (I) according to table 1 on various useful plants at an application rate corresponding to 320 g/ha or less, which were obtained by the experimental procedure mentioned above.

Kochia scoparia (KCHSC) [2] = test: C. Herbicidal pre-emergence efficacy, KCHSC; conditions: application rate 320 g/ha
Source text: (§4) Seeds of monocotyledonous and dicotyledonous weed plants and crop plants were placed in plastic or organic planting pots and covered with soil. The compounds of the invention, formulated in the form of wettable powders (WP) or as emulsion concentrates (EC), were then applied to the surface of the covering soil as aqueous suspension or emulsion with addition of 0.5% additive at a water application rate equivalent to 600 l/ha (converted). After the treatment, the pots were placed in a greenhouse and kept under good growth conditions for the test plants. After about 3 weeks, the efficacy of the preparations was scored visually in comparison with untreated controls as percentages. For example, • 100% efficacy=plants have died, • 0% efficacy=like untreated control plants.
(§5) Tables C1a to C14b below show the effects of selected compounds of the general formula (I) according to table 1 on various harmful plants at an application rate corresponding to 320 g/ha or less, which were obtained by the experimental procedure mentioned above.

Zea mays (ZEAMX) [3] = test: D. Pre-emergence effect on useful plants, ZEAMX; conditions: useful plant, application rate 80 g/ha
Source text: as §4
(§6) Tables D1a to D5b below show the effects of selected compounds of the general formula (I) according to table 1 on various useful plants at an application rate corresponding to 320 g/ha or less, which were obtained by the experimental procedure mentioned above.

Viola tricolor (VIOTR) [4] = test: C. Herbicidal pre-emergence efficacy, VIOTR
Source text: as §4, §5

Veronica persica (VERPE) [5] = test: E. Herbicidal post-emergence efficacy, VERPE
Experimental: as §1, §2
(§7) Tables E1a to E12b below show the effects of selected compounds of the general formula (I) according to table 1 on various harmful plants at an application rate corresponding to 320 g/ha or less, which were obtained by the experimental procedure mentioned above.

Setaria viridis (SETVI) [6] = test: C. Herbicidal pre-emergence efficacy, SETVI; conditions: scored after about 3 weeks
Source text: as §4, §5

[7] = system: Pharbitis purpurea (PHBPU); test: E. Herbicidal post-emergence efficacy, PHBPU; conditions: application rate 320 g/ha
Experimental: as §1, §2, §7

Glycine max (GLXMA) = test: D. Pre-emergence effect on useful plants, GLXMA; conditions: useful plant
Source text: as §4, §6

[8] = system: Abutilon theophrasti (ABUTH); test: E. Herbicidal post-emergence efficacy, ABUTH
Experimental: as §1, §2, §7

[9] = system: Amaranthus retroflexus (AMARE); test: E. Herbicidal post-emergence efficacy, AMARE
Experimental: as §1, §2, §7

Kochia scoparia (KCHSC) [10] = test: E. Herbicidal post-emergence efficacy, KCHSC
Experimental: as §1, §2, §7

Brassica napus (BRSNW) = test: D. Pre-emergence effect on useful plants, BRSNW; conditions: useful plant
Source text: as §4, §6

[11] = system: Matricaria inodora (MATIN); test: C. Herbicidal pre-emergence efficacy, MATIN; conditions: 320 g/ha, scored after about 3 weeks
Source text: as §4, §5

[12] = system: Amaranthus retroflexus (AMARE); test: C. Herbicidal pre-emergence efficacy, AMARE; conditions: scored after about 3 weeks
Source text: as §4, §5

[13] = system: Digitaria sanguinalis (DIGSA); test: C. Herbicidal pre-emergence efficacy, DIGSA; conditions: 320 g/ha, scored after about 3 weeks
Source text: as §4, §5

[14] = system: Triticum aestivum (TRZAS); test: D. Pre-emergence effect on useful plants, TRZAS; conditions: useful plant
Source text: as §4, §6

Setaria viridis (SETVI) [15] = test: E. Herbicidal post-emergence efficacy, SETVI; conditions: application rate 320 g/ha
Experimental: as §1, §2, §7

Lolium rigidum (LOLRI) [16] = test: E. Herbicidal post-emergence efficacy, LOLRI; conditions: application rate 320 g/ha
Experimental: as §1, §2, §7

Veronica persica (VERPE) [17] = test: C. Herbicidal pre-emergence efficacy, VERPE; conditions: scored after about 3 weeks
Source text: as §4, §5

[18] = system: Alopecurus myosuroides (ALOMY); test: E. Herbicidal post-emergence efficacy, ALOMY; conditions: application rate 320 g/ha
Experimental: as §1, §2, §7

Lolium rigidum (LOLRI) [19] = test: C. Herbicidal pre-emergence efficacy, LOLRI; conditions: 320 g/ha, scored after about 3 weeks
Source text: as §4, §5

[20] = system: Echinochloa crus-galli (ECHCG); test: C. Herbicidal pre-emergence efficacy, ECHCG; conditions: scored after about 3 weeks
Source text: as §4, §5

[21] = system: Alopecurus myosuroides (ALOMY); test: C. Herbicidal pre-emergence efficacy, ALOMY; conditions: 320 g/ha, scored after about 3 weeks
Source text: as §4, §5

[22] = system: Echinochloa crus-galli (ECHCG); test: E. Herbicidal post-emergence efficacy, ECHCG
Experimental: as §1, §2, §7

Avena fatua (AVEFA) = test: C. Herbicidal pre-emergence efficacy, AVEFA; conditions: 320 g/ha, scored after about 3 weeks
Source text: as §4, §5

[23] = system: Abutilon theophrasti (ABUTH); test: C. Herbicidal pre-emergence efficacy, ABUTH; conditions: scored after about 3 weeks
Source text: as §4, §5

Oryza sativa (ORYSA) = test: D. Pre-emergence effect on useful plants, ORYSA; conditions: useful plant, application rate 80 g/ha
Source text: as §4, §6

[24] = system: Polygonum convolvulus (POLCO); test: E. Herbicidal post-emergence efficacy, POLCO; conditions: application rate 320 g/ha
Experimental: as §1, §2, §7

Zea mays (ZEAMX) [25] = test: F. Post-emergence effect on useful plants, ZEAMX; conditions: useful plant, application rate 80 g/ha
Experimental: as §1, §2, §3

Viola tricolor (VIOTR) [26] = test: E. Herbicidal post-emergence efficacy, VIOTR
Experimental: as §1, §2, §7

[27] = system: Polygonum convolvulus (POLCO); test: C. Herbicidal pre-emergence efficacy, POLCO; conditions: scored after about 3 weeks
Source text: as §4, §5

Post-emergence efficacy against TRZAS in % [1]: 0% | Pre-emergence efficacy against ZEAMX in % (Zea mays (ZEAMX) [3]): 0% | Pre-emergence efficacy against GLXMA in % (Glycine max (GLXMA); application rate 80 g/ha): 0% | Pre-emergence efficacy against GLXMA in % (Glycine max (GLXMA); application rate 320 g/ha): 0% | Pre-emergence efficacy against BRSNW in % (Brassica napus (BRSNW); application rate 80 g/ha): 0% | Pre-emergence efficacy against BRSNW in % (Brassica napus (BRSNW); application rate 320 g/ha): 0% | Pre-emergence efficacy against TRZAS in % ([14]; application rate 80 g/ha): 0% | Pre-emergence efficacy against TRZAS in % ([14]; application rate 320 g/ha): 10%
SMILES: O=S(=O)(CC=C(Cl)Cl)Oc1c(F)cccc1Oc1ncc(Cl)cn1 [Example I-85]
Pre-emergence efficacy against KCHSC in % (Kochia scoparia (KCHSC) [2]): 100% | Pre-emergence efficacy against VIOTR in % (Viola tricolor (VIOTR) [4]; application rate 320 g/ha): 80% | Post-emergence efficacy against VERPE in % (Veronica persica (VERPE) [5]; application rate 80 g/ha): 100% | Post-emergence efficacy against VERPE in % (Veronica persica (VERPE) [5]; application rate 320 g/ha): 100% | Pre-emergence efficacy against SETVI (Setaria viridis (SETVI) [6]; 320 g/ha): 90% | Post-emergence efficacy against PHBPU in % [7]: 90% | Post-emergence efficacy against ABUTH in % ([8]; application rate 320 g/ha): 80% | Post-emergence efficacy against AMARE in % ([9]; application rate 80 g/ha): 90% | Post-emergence efficacy against AMARE in % ([9]; application rate 320 g/ha): 100% | Post-emergence efficacy against KCHSC in % (Kochia scoparia (KCHSC) [10]; application rate 80 g/ha): 80% | Post-emergence efficacy against KCHSC in % (Kochia scoparia (KCHSC) [10]; application rate 320 g/ha): 100% | Pre-emergence efficacy against MATIN [11]: 80% | Pre-emergence efficacy against AMARE ([12]; 80 g/ha): 100% | Pre-emergence efficacy against AMARE ([12]; 320 g/ha): 100% | Pre-emergence efficacy against DIGSA [13]: 100%

Post-emergence efficacy against TRZAS in % [1]: 20% | Pre-emergence efficacy against GLXMA in % (Glycine max (GLXMA); application rate 80 g/ha): 20% | Pre-emergence efficacy against ORYSA in % (Oryza sativa (ORYSA)): 20% | Post-emergence efficacy against ZEAMX in % (Zea mays (ZEAMX) [25]): 20%
SMILES: Cc1cccc(Oc2ncc(Cl)cn2)c1OS(=O)(=O)CCCCl [Example I-11]
Post-emergence efficacy against SETVI in % (Setaria viridis (SETVI) [15]): 100% | Post-emergence efficacy against LOLRI in % (Lolium rigidum (LOLRI) [16]): 90% | Pre-emergence efficacy against VERPE (Veronica persica (VERPE) [17]; 80 g/ha): 100% | Pre-emergence efficacy against VERPE (Veronica persica (VERPE) [17]; 320 g/ha): 100% | Pre-emergence efficacy against VIOTR in % (Viola tricolor (VIOTR) [4]; application rate 80 g/ha): 100% | Pre-emergence efficacy against VIOTR in % (Viola tricolor (VIOTR) [4]; application rate 320 g/ha): 100% | Post-emergence efficacy against VERPE in % (Veronica persica (VERPE) [5]; application rate 80 g/ha): 100% | Post-emergence efficacy against VERPE in % (Veronica persica (VERPE) [5]; application rate 320 g/ha): 100% | Post-emergence efficacy against ALOMY in % [18]: 90% | Pre-emergence efficacy against SETVI (Setaria viridis (SETVI) [6]; 80 g/ha): 90% | Pre-emergence efficacy against SETVI (Setaria viridis (SETVI) [6]; 320 g/ha): 100% | Pre-emergence efficacy against LOLRI (Lolium rigidum (LOLRI) [19]): 80% | Pre-emergence efficacy against ECHCG ([20]; 80 g/ha): 90% | Pre-emergence efficacy against ECHCG ([20]; 320 g/ha): 100% | Pre-emergence efficacy against ALOMY [21]: 90% | Post-emergence efficacy against ECHCG in % ([22]; application rate 80 g/ha): 90% | Post-emergence efficacy against ECHCG in % ([22]; application rate 320 g/ha): 90% | Pre-emergence efficacy against AVEFA (Avena fatua (AVEFA)): 90% | Pre-emergence efficacy against ABUTH ([23]; 80 g/ha): 90% | Pre-emergence efficacy against ABUTH ([23]; 320 g/ha): 90% | Post-emergence efficacy against ABUTH in % ([8]; application rate 80 g/ha): 80% | Post-emergence efficacy against ABUTH in % ([8]; application rate 320 g/ha): 90% | Post-emergence efficacy against POLCO in % [24]: 100% | Post-emergence efficacy against VIOTR in % (Viola tricolor (VIOTR) [26]; application rate 80 g/ha): 90% | Post-emergence efficacy against VIOTR in % (Viola tricolor (VIOTR) [26]; application rate 320 g/ha): 100% | Pre-emergence efficacy against POLCO ([27]; 80 g/ha): 80% | Pre-emergence efficacy against POLCO ([27]; 320 g/ha): 80% | Post-emergence efficacy against AMARE in % ([9]; application rate 80 g/ha): 90% | Post-emergence efficacy against AMARE in % ([9]; application rate 320 g/ha): 100% | Pre-emergence efficacy against MATIN [11]: 80% | Pre-emergence efficacy against AMARE ([12]; 80 g/ha): 100% | Pre-emergence efficacy against AMARE ([12]; 320 g/ha): 100%
